Measured values reported in the supplement of paper PMC10307832.

Tests used:
Test in all cases: relative viability (nuclei count vs DMSO), 5 days (fraction); higher = more cells survive
[1] = compound: CCOC1=CC=CC=C1N=NC2=C(NN(C2=O)C3=NC(=CS3)C4=CC=CC=C4)C [BAM7] + Cc1nc(NC(=O)N2CCC[C@H]2C(N)=O)sc1-c1ccnc(C(C)(C)C(F)(F)F)c1 [Alpelisib] (partner 2 µM)
How it was run: (§1)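 Each reported value is a median over duplicate plates. It expresses relative viability: treated-well nuclei count divided by vehicle-well nuclei count. Lung cancer cell lines in 1536-well plates were dosed by pin tool a day after seeding, alone with one drug or with a fixed anchor-drug dose plus five library-drug doses (not always all listed) in √10 steps, and nuclei were counted after 5 days.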

[2] = compound: CCn1c(-c2nonc2N)nc2c(C#CC(C)(C)O)ncc(OC[C@H]3CCCNC3)c21 + CC(C)C[C@H](NC(=O)[C@H](Cc1ccccc1)NC(=O)c1cnccn1)B(O)O [Bortezomib] (partner 0.002 µM)
How it was run: as §1

[3] = compound: CCOC1=CC=CC=C1N=NC2=C(NN(C2=O)C3=NC(=CS3)C4=CC=CC=C4)C [BAM7]
How it was run: (§2)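 Acceptance criteria were a control CV below 25% and at least one doubling per plate. Lung cancer cell lines in 1536-well plates got five library-drug doses (not always all listed) √10 apart by pinning and were left 5 days with no medium change. Viability divides treated-well nuclei by vehicle-well nuclei and is the median across plates. Nuclei were counted by MetaXpress from 4× Hoechst images.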

[4] = compound: CCn1c(-c2nonc2N)nc2c(C#CC(C)(C)O)ncc(OC[C@H]3CCCNC3)c21
How it was run: as §2

Row | Cell Line | relative viability ([1]; first compound 0.5 µM) | relative viability ([1]; first compound 5 µM) | relative viability ([1]; first compound 50 µM) | relative viability ([2]; first compound 0.01 µM) | relative viability ([2]; first compound 0.03162 µM) | relative viability ([2]; first compound 0.1 µM) | relative viability ([2]; first compound 0.3162 µM) | relative viability ([2]; first compound 1 µM) | relative viability ([3]; 0.5 µM) | relative viability ([3]; 5 µM) | relative viability ([3]; 15.81 µM) | relative viability ([3]; 50 µM) | relative viability ([4]; 0.01 µM) | relative viability ([4]; 0.03162 µM) | relative viability ([4]; 0.1 µM) | relative viability ([4]; 0.3162 µM) | relative viability ([4]; 1 µM) | relative viability ([1]; first compound 15.81 µM)
1 | NCI-H1975 | 0.539 | 0.508 | 0.548 | 0.379 | 0.351 | 0.438 | 0.314 | 0.289 | 0.823 | 0.898 | 0.775 | 0.903 | 0.932 | 1 | 0.96 | 0.921 | 0.843 | 
2 | CAL-12T | 1.21 | 1.19 | 1.39 | 0.939 | 0.852 | 1.08 | 1.16 | 1.1 | 1.05 | 1.01 | 0.952 | 1.07 | 1.12 | 0.997 | 0.94 | 0.973 | 0.997 | 1
3 | NCI-H1623 |  |  |  |  |  |  |  |  | 1.06 | 0.974 | 0.768 | 0.896 | 1.07 | 1.02 | 0.963 | 0.967 | 1.09 | 
4 | HCC-44 | 0.829 | 0.708 | 0.735 | 0.893 | 0.808 | 0.89 | 0.907 | 0.911 | 0.923 | 0.997 | 1.02 | 1.01 | 0.951 | 0.852 | 0.979 | 0.974 | 0.993 | 0.702
5 | EKVX | 0.891 | 0.794 | 0.597 | 1.01 | 0.862 | 1.15 | 0.994 | 0.965 | 1.05 | 0.982 | 0.843 | 0.86 | 0.962 | 0.942 | 0.97 | 0.933 | 0.924 | 0.513
6 | NCI-H1651 | 1.01 | 0.861 | 0.883 | 0.905 | 0.901 | 0.864 | 0.903 | 0.989 | 1.02 | 1 | 1 | 1.05 | 0.941 | 0.935 | 0.95 | 0.924 | 1.01 | 0.967
7 | NCI-H1944 | 0.875 | 0.902 | 0.81 |  |  |  |  |  | 0.947 | 0.949 | 0.857 | 1 | 0.941 | 0.922 | 0.919 | 0.935 | 1.01 | 0.661
8 | NCI-H1703 | 0.316 | 0.322 | 0.36 | 0.327 | 0.391 | 0.339 | 0.201 | 0.209 | 1.04 | 0.989 | 0.808 | 1 | 0.828 | 0.973 | 0.839 | 0.788 | 0.612 | 0.291
9 | NCI-H358 | 0.953 | 0.837 | 0.85 |  |  |  |  |  | 0.96 | 1.19 | 0.942 | 0.912 | 0.905 | 1.01 | 0.935 | 0.912 | 0.913 | 0.859
10 | NCI-H1793 | 0.752 | 0.892 | 0.675 |  |  |  |  |  | 0.963 | 0.838 | 0.899 | 1.03 | 0.936 | 0.879 | 0.751 | 0.859 | 0.942 | 0.541
11 | ChaGo-K-1 |  |  |  | 0.972 | 0.795 | 1.01 | 0.99 | 0.954 | 0.966 | 1.02 | 1.01 | 0.92 | 0.965 | 0.988 | 0.972 | 0.936 | 1 | 
12 | NCI-H522 |  |  |  |  |  |  |  |  | 0.981 | 1.07 | 1.01 | 1.07 | 1.07 | 1.03 | 0.972 | 0.826 | 1.02 | 
13 | NCI-H1650 |  |  |  | 0.214 | 0.195 | 0.223 | 0.185 | 0.202 | 1.02 | 0.884 | 0.826 | 1.04 | 0.941 | 0.994 | 0.877 | 0.841 | 0.833 | 
14 | NCI-H1648 |  |  |  |  |  |  |  |  | 0.786 | 0.754 | 0.608 | 0.708 | 0.922 | 0.869 | 0.775 | 0.851 | 0.973 | 
15 | SK-MES-1 | 1.1 | 0.9 | 1.01 |  |  |  |  |  | 1.04 | 1.08 | 0.973 | 1.03 | 0.998 | 1.01 | 1.02 | 0.944 | 0.993 | 0.985
16 | NCI-H2342 |  |  |  |  |  |  |  |  | 0.851 | 0.994 | 0.89 | 0.708 | 0.957 | 0.881 | 0.99 | 0.91 | 0.964 | 
17 | SW 900 |  |  |  |  |  |  |  |  | 0.781 | 0.826 | 0.708 | 1.03 | 0.796 | 0.73 | 0.76 | 0.822 | 0.892 | 
18 | LK-2 | 1.14 | 1.78 | 0.874 |  |  |  |  |  | 1.03 | 1.13 | 1.04 | 1.1 | 0.889 | 1.06 | 0.815 | 0.913 | 0.872 | 1.16
19 | NCI-H1395 | 1.23 | 1.04 | 1.24 |  |  |  |  |  | 0.884 | 1.01 | 0.944 | 1.1 | 0.848 | 0.693 | 0.762 | 0.737 | 0.705 | 1.04
20 | A549 | 0.872 | 0.722 | 0.845 |  |  |  |  |  | 1.01 | 1.07 | 0.948 | 1.03 | 0.934 | 0.995 | 0.996 | 0.896 | 0.951 | 0.846
21 | NCI-H2170 | 0.631 | 0.603 | 0.672 |  |  |  |  |  | 0.972 | 0.993 | 0.904 | 0.958 | 0.962 | 1.01 | 0.996 | 0.91 | 0.958 | 0.537
